In BigSolDB 2.1:

Cc1nc2cc(N)ccc2s1
solubility (mole fraction)
Settings	288.5 K	293.5 K	298.5 K	303.5 K	308.5 K	313.5 K	318.5 K	323.5 K	328.5 K
in ethanol	0.00125	0.00129	0.00156	0.00164	0.00174	0.00194	0.0022	0.00253	0.00284
in water	0.000191	0.000269	0.000311	0.000491	0.000534	0.000745	0.000872	0.000937	0.00113
